Measured values published in patent US9862693B2, “Compounds and methods of treating cancer” (The Regents of the University of California, priority 2012, dated 2018).
Entries after “also recorded” stand apart in the source; their conditions may differ. Where a name gives a salt, the structure may show the parent alone.

Legend:
MCF7 = experiment: MTS cell number assay (CellTiter 96), ER+ breast cancer cells; type: cell-based; settings: Homo sapiens, 1 mM, 72 hours, MTS method, read-out: ER+ BC MCF7, cell numbers as percentage of vehicle treated controls
Procedure: FIG. 1. Metformin analogues inhibit growth/survival of ER+ MCF7 breast cancer cells. MCF7 cells were cultured in medium containing different concentrations of metformin and analogues (0.1, 1 and 5 mM). After 3 days, the percentage of surviving cells relative to controls, defined as 100% survival, was determined by the MTS assay. Data represents three independent experiments.
Compounds described herein (e.g. metformin derivatives and/or analogues) were tested in human MCF-7 breast cancer cells, a standard ERalpha-positive model of breast malignancy (FIG. 1), and in four different cell lines classified as TNBC, including MDA-MB-231, HCC1937, HCC38 and HCC1806 (FIGS. 2A-2D). […] Experiments were also performed in: 1) a non-small cell lung cancer cell line that is known to be resistant to standard chemotherapy (A549); and 2) a melanoma-like cell model (MDA-MB-435). To find if analogues have effects on normal cells compounds were tested in two different types of cells, human umbilical vein endothelial cells (HUVEC) and human mammary epithelial cells (HMEC). The effects of metformin (MET) were compared with compounds JD001-JD009.
(§1) Cells were incubated in the presence of vehicle, metformin or metformin analogues for 72 hours in their respective media. After treatment cell numbers were determined with the MTS method using the CellTiter 96 Aqueous Non-Radioactive Cell Proliferation Assay (Promega). Numbers express percentage of vehicle treated controls at 1 mM concentration metformin or metformin analogues (JD001-JD009). TNBC: Triple Negative Breast Cancer Cells, ER+BC: Estrogen receptor positive breast cancer.

HUVEC = experiment: MTS cell number assay (CellTiter 96), normal cells; type: cell-based; settings: Homo sapiens, 1 mM, 72 hours, MTS method, read-out: Biodata Normal HUVEC, cell numbers as percentage of vehicle treated controls
Procedure: (§2) FIGS. 4A-4B. Effects of metformin and metformin analogues on normal cells. HMEC (FIG. 4A) and HUVEC (FIG. 4B) cells were plated in special media. After 24 hours, cells were treated with increasing concentrations of metformin and analogues JD001-JD009 (0.1, 1 and 5 mM). After 3 days, MTS assay was performed. Survival is expressed as percentage of vehicle treated control. Data represents at least two experiments.
(§3) The effects of compounds described herein (including embodiments) (e.g. metformin analogues) were determined on two types of normal nonmalignant human cells, human umbilical vein endothelial cells (HUVEC) and human mammary epithelial cells (HMEC). There were no significant biologic effects noted on exposure to the metformin analogues.
as §1

HMEC = experiment: MTS cell number assay (CellTiter 96), normal cells; type: cell-based; settings: Homo sapiens, 1 mM, 72 hours, MTS method, read-out: Biodata Normal HMEC, cell numbers as percentage of vehicle treated controls
Procedure: as §2, §3, §1

MDA-MB-435 = experiment: MTS cell number assay (CellTiter 96), melanoma cells; type: cell-based; settings: 1 mM, 72 hours, MTS method
Procedure: (§4) FIGS. 3A-3B. Metformin analogues inhibit survival of non-small cell lung cancer (NSCLC) (FIG. 3A) and melanoma cell lines (FIG. 3B). A549 (NSCLC) and MDA-MB-435 (melanoma) cells were cultured in medium containing 1% fetal bovine serum and increasing concentrations of metformin (MET) and analogues JD001-JD007 (0.1, 1 and 5 mM). After 3 days, MTS assay was performed. Survival is expressed as percentage of control defined at 100%.
as §1

MDA-MB-231 = experiment: MTS cell number assay (CellTiter 96), TNBC cells; type: cell-based; settings: Homo sapiens, 1 mM, 72 hours, MTS method, read-out: Biodata TNBC MDA-MB-231, cell numbers as percentage of vehicle treated controls
Procedure: (§5) FIGS. 2A-2D. Metformin analogues inhibit growth/survival of triple negative breast cancer cells. MDA-MB-231 (FIG. 2A), HCC38 (FIG. 2B), HCC1937 (FIG. 2C) and HCC1806 (FIG. 2D) cells were cultured in medium containing 1% fetal bovine serum and increasing concentrations of metformin and analogues JD001-JD009 (0.1, 1 and 5 mM). After 3 days, MTS assay was performed. The percentage of surviving cells relative to controls, defined as 100% survival, was determined by the MTS assay.
as §1

HCC1937 = experiment: MTS cell number assay (CellTiter 96), TNBC cells; type: cell-based; settings: 1 mM, 72 hours, MTS method
Procedure: as §5, §1

HCC38 = experiment: MTS cell number assay (CellTiter 96), TNBC cells; type: cell-based; settings: 1 mM, 72 hours, MTS method
Procedure: as §5, §1

HCC1806 = experiment: MTS cell number assay (CellTiter 96), TNBC cells; type: cell-based; settings: 1 mM, 72 hours, MTS method
Procedure: as §5, §1

A549 = experiment: MTS cell number assay (CellTiter 96), NSCLC cells; type: cell-based; settings: Homo sapiens, 1 mM, 72 hours, MTS method, read-out: Biodata extra A549, cell numbers as percentage of vehicle treated controls
Procedure: as §4, §1

MCF-7 cells = experiment: Cell proliferation ELISA, BrdU colorimetric kit; type: cell-based, human; settings: 0.1 mM and 1 mM, BrdU incorporation, 1% FBS, P<0.01
Procedure: FIGS. 6A-6C. […] Proliferation was assessed using cell proliferation ELISA, BrdU colorimetric kit (Roche). Cells were counted using a hemocytometer and plated. After 24 hrs, cells were treated with metformin and analogs JD003 and JD004 at 0.1 mM and 1 mM doses using phenol-red free medium with 1% FBS. After 48 hr, BrDU labeling solution was added and incubated for 24 h. Proliferation was assessed using BrDU incorporation by ELISA during DNA synthesis in proliferating cells. Data shown as % control (mean±SE) (n=3 experiments).
We hypothesize that metformin analogs can be prepared with enhanced anticancer activity and minimal non-target toxicity. […] Human pancreatic cancer cells PANC-1, were grown in DMEM with 2 mM glutamine, 1 mM sodium pyruvate, 100 units/mL penicillin, 100 μg/mL streptomycin and 10% FBS at 37 C in a humidified atmosphere with 10% CO2. Then, effects of treatment with metformin or analog JD003 on cell proliferation in vitro were tested. […] In contrast, minimal antiproliferative effects are detected in nonmalignant human epithelial cells. […]
Cell proliferation screening assays were done using cell proliferation ELISA, BrdU colorimetric kit (Roche). Cells were counted using a hemocytometer and plated in 96-well plates. […] Cell proliferation were quantitated based on measures of BrDU incorporation (by ELISA) during DNA synthesis in proliferating cells. […] Results were expressed as mean±SE. […]

Structure (SMILES): N=C(NC(=N)N1CCCCC1)N1CCCCC1 [JD002, N-(Imino(piperidin-1-yl)methyl)piperidine-1-carboximidamide hydrochloride]
- viability at 1000 µM (MCF7): 46.2%
- viability at 1000 µM (HUVEC): 70%
- viability at 1000 µM (HMEC): 62.6%
- Biodata extra MDA-MB-435, cell numbers as percentage of vehicle treated controls (MDA-MB-435): 39.8 percentage of vehicle treated controls
- viability at 1000 µM (MDA-MB-231): 48.5%
- Biodata TNBC HCC1937, cell numbers as percentage of vehicle treated controls (HCC1937): 17.1 percentage of vehicle treated controls
- Biodata TNBC HCC38, cell numbers as percentage of vehicle treated controls (HCC38): 44.7 percentage of vehicle treated controls
- Biodata TNBC HCC1806, cell numbers as percentage of vehicle treated controls (HCC1806): 36.4 percentage of vehicle treated controls
- viability at 1000 µM (A549): 4.6%

Structure (SMILES): CON(C)C(=N)NC(=N)N [JD001, N-Methoxyl-N-methylbiguanide hydrochloride]
- viability at 1000 µM (MCF7): 82.3%
- viability at 1000 µM (HUVEC): 84.4%
- viability at 1000 µM (HMEC): 101%
- Biodata extra MDA-MB-435, cell numbers as percentage of vehicle treated controls (MDA-MB-435): 102.1 percentage of vehicle treated controls
- viability at 1000 µM (MDA-MB-231): 92%
- Biodata TNBC HCC1937, cell numbers as percentage of vehicle treated controls (HCC1937): 68.9 percentage of vehicle treated controls
- Biodata TNBC HCC38, cell numbers as percentage of vehicle treated controls (HCC38): 102.5 percentage of vehicle treated controls
- Biodata TNBC HCC1806, cell numbers as percentage of vehicle treated controls (HCC1806): 80.1 percentage of vehicle treated controls
- viability at 1000 µM (A549): 62.6%

Structure (SMILES): CC1CCN(C(=N)NC(=N)N)CC1 [JD009, N-Carbamimidoyl-4-methylpiperidine-1-carboximidamide, hydrochloride]
- viability at 1000 µM (MCF7): 52.7%
- viability at 1000 µM (HUVEC): 39.5%
- viability at 1000 µM (HMEC): 48.8%
- viability at 1000 µM (MDA-MB-231): 0.3%
- Biodata TNBC HCC38, cell numbers as percentage of vehicle treated controls (HCC38): 0 percentage of vehicle treated controls
- Biodata TNBC HCC1806, cell numbers as percentage of vehicle treated controls (HCC1806): 7.3 percentage of vehicle treated controls

Structure (SMILES): N=C(NC(=N)N1CCCC1)N1CCCCC1 [JD005, N-(Imino(pyrrolidin-1-yl)methyl)piperidine-1-carboximidamide hydrochloride]
- viability at 1000 µM (MCF7): 58.2%
- viability at 1000 µM (HUVEC): 54.6%
- viability at 1000 µM (HMEC): 67.6%
- Biodata extra MDA-MB-435, cell numbers as percentage of vehicle treated controls (MDA-MB-435): 42.2 percentage of vehicle treated controls
- viability at 1000 µM (MDA-MB-231): 46.6%
- Biodata TNBC HCC1937, cell numbers as percentage of vehicle treated controls (HCC1937): 15.7 percentage of vehicle treated controls
- Biodata TNBC HCC38, cell numbers as percentage of vehicle treated controls (HCC38): 43.4 percentage of vehicle treated controls
- Biodata TNBC HCC1806, cell numbers as percentage of vehicle treated controls (HCC1806): 55.8 percentage of vehicle treated controls
- viability at 1000 µM (A549): 32.4%

Structure (SMILES): CN(C)C(=N)NC(=N)N1CCOCC1 [JD007, N—(N,N-Dimethylcarbamimidoyl)morpholine-4-carboximidamide hydrochloride]
- viability at 1000 µM (MCF7): 65.8%
- viability at 1000 µM (HUVEC): 112%
- viability at 1000 µM (HMEC): 105%
- viability at 1000 µM (MDA-MB-231): 64.3%
- Biodata TNBC HCC38, cell numbers as percentage of vehicle treated controls (HCC38): 83.6 percentage of vehicle treated controls
- Biodata TNBC HCC1806, cell numbers as percentage of vehicle treated controls (HCC1806): 65.7 percentage of vehicle treated controls
- viability at 1000 µM (A549): 82.3%

Structure (SMILES): CN1CCN(C(=N)NC(=N)N2CCN(C)CC2)CC1 [JD004, N-(Imino(4-methylpiperazin-1-yl)methyl)-4-methylpiperazine-1-carboximidamide hydro-chloride]
- Blocking proliferation of MCF-7 cells compared with metformin (MCF-7 cells): more effective in blocking proliferation of MCF-7 cells; also recorded: enhanced antiproliferative activity in breast cancer cells as compared to metformin
- viability at 1000 µM (MCF7): 84.4%
- viability at 1000 µM (HUVEC): 89.1%
- viability at 1000 µM (HMEC): 113%
- Biodata extra MDA-MB-435, cell numbers as percentage of vehicle treated controls (MDA-MB-435): 59.6 percentage of vehicle treated controls
- viability at 1000 µM (MDA-MB-231): 89.2%
- Biodata TNBC HCC1937, cell numbers as percentage of vehicle treated controls (HCC1937): 64 percentage of vehicle treated controls
- viability at 1000 µM (A549): 74.3%

Structure (SMILES): N=C(NC(=N)N1CCCC1)N1CCCC1 [JD006, N-(Imino(pyrrolidin-1-yl)methyl)pyrrolidine-1-carboximidamide hydrochloride]
- viability at 1000 µM (MCF7): 59.7%
- viability at 1000 µM (HUVEC): 113%
- viability at 1000 µM (HMEC): 96.6%
- viability at 1000 µM (A549): 59.7%

Structure (SMILES): CCCN(C)C(=N)NC(=N)N [JD008, N-Methyl-N-propylbiguanide hydrochloride]
- viability at 1000 µM (MCF7): 52.2%
- viability at 1000 µM (HUVEC): 37.7%
- viability at 1000 µM (HMEC): 70.9%
- viability at 1000 µM (MDA-MB-231): 38.6%
- Biodata TNBC HCC38, cell numbers as percentage of vehicle treated controls (HCC38): 55.6 percentage of vehicle treated controls
- Biodata TNBC HCC1806, cell numbers as percentage of vehicle treated controls (HCC1806): 52.7 percentage of vehicle treated controls
